In ChEMBL document CHEMBL4184312, “Discovery of novel CDK inhibitors via scaffold hopping from CAN508” (Bioorg Med Chem Lett, 2018):

Assays:
[1] = target: CDK2/Cyclin A2 (Homo sapiens) (UniProt P24941+P20248); assay: Inhibition of recombinant human CDK2/cyclin A at 10 uM using Ulight-CFFKNIVTPRTPPPSQGK-amide as substrate after 15 mins by fluorescence assay relative to control; type: protein-complex assay
[2] = target: CDK9/cyclin T1 (Homo sapiens) (UniProt O60563+P50750); assay: Inhibition of recombinant human CDK9/cyclin T1 at 10 uM using Ulight-CFFKNIVTPRTPPPSQGK-amide as substrate after 90 mins by fluorescence assay relative to control; type: protein-complex assay
CDK9/cyclin T1 = CDK9/cyclin T1 (Homo sapiens, UniProt P50750); assay: Inhibition of recombinant human CDK9/cyclin T1 using Ulight-CFFKNIVTPRTPPPSQGK-amide as substrate after 90 mins by fluorescence assay relative to control; type: protein-complex assay
Sequence of CDK9/cyclin T1 (O60563 whole entry): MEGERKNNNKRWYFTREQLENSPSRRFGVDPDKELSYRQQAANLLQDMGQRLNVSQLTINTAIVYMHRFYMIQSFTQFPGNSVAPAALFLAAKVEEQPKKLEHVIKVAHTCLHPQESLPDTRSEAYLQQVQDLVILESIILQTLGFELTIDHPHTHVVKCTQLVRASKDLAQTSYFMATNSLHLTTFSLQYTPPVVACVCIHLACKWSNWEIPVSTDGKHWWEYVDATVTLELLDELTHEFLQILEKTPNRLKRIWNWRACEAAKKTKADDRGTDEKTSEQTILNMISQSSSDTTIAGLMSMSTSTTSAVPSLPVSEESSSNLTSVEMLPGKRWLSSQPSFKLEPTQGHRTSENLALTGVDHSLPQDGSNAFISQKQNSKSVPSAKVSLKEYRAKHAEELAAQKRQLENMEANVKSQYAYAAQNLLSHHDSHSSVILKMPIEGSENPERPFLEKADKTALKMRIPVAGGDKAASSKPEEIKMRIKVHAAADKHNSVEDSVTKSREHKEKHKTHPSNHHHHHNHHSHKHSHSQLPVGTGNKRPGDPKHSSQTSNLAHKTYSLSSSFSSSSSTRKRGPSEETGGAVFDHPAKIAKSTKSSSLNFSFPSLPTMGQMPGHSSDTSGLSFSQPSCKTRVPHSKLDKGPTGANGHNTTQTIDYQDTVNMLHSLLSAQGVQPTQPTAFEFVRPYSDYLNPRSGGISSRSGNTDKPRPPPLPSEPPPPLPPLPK
Sequence of CDK9/cyclin T1 (P50750 whole entry): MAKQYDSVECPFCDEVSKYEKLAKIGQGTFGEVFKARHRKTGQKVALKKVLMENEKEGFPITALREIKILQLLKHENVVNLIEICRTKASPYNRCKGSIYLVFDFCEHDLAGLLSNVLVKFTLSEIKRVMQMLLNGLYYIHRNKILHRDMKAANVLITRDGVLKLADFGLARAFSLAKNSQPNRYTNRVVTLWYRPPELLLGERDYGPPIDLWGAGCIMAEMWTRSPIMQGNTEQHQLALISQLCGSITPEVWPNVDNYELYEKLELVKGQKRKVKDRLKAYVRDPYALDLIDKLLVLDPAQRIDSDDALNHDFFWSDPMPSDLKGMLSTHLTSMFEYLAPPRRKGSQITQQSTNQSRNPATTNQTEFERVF

CDK2/Cyclin A2 = CDK2/Cyclin A2 (Homo sapiens, UniProt P24941); assay: Inhibition of recombinant human CDK2/cyclin A using Ulight-CFFKNIVTPRTPPPSQGK-amide as substrate after 15 mins by fluorescence assay relative to control; type: protein-complex assay
Homo sapiens = species: Homo sapiens; assay: Selectivity ratio of IC50 for recombinant human CDK9/cyclin T1 to IC50 for recombinant human CDK2/cyclin A

Row | inhibition [1] | inhibition [2] | IC50 (CDK9/cyclin T1) | IC50 (CDK2/Cyclin A2) | Ratio IC50 (Homo sapiens) | Structure (SMILES)
1 | 87% | 73% | 3500 nM |  |  | CCCCC(=O)Nc1n[nH]c2ncc(-c3ccc(O)cc3)cc12
2 | 39% | 64% |  |  |  | CNCCC(=O)Nc1n[nH]c2ncc(-c3ccc(O)cc3)cc12
3 | 51% | 49% |  |  |  | CN1CCN(CCC(=O)Nc2n[nH]c3ncc(-c4ccc(O)cc4)cc23)CC1
4 | 63% | 12% | 529000 nM | 2000 nM | 265 | CCC(CC)C(=O)Nc1n[nH]c2ncc(-c3ccc(O)cc3)cc12
5 | 54% | 19% |  |  |  | CC(C)CC(=O)Nc1n[nH]c2ncc(-c3ccc(O)cc3)cc12
6 | 77% | 59% |  |  |  | CC(C)(C)CC(=O)Nc1n[nH]c2ncc(-c3ccc(O)cc3)cc12
7 | 90% | 70% | 2400 nM | 820 nM |  | CCC(=O)Nc1n[nH]c2ncc(-c3ccc(O)cc3)cc12
8 | 68% | 64% |  |  |  | CNCC(=O)Nc1n[nH]c2ncc(-c3ccc(O)cc3)cc12
9 | 59% | 48% |  |  |  | CN(C)CCC(=O)Nc1n[nH]c2ncc(-c3ccc(O)cc3)cc12
10 | 98% | 73% | 2400 nM | 660 nM |  | O=C(CCCl)Nc1n[nH]c2ncc(-c3ccc(O)cc3)cc12
11 | 70% | 25% |  |  |  | O=C(Cc1ccccc1)Nc1n[nH]c2ncc(-c3ccc(O)cc3)cc12
12 | 52% | 56% |  |  |  | CN(C)CC(=O)Nc1n[nH]c2ncc(-c3ccc(O)cc3)cc12

Second part, the molecule before the results:

Row | Structure (SMILES) | inhibition [1] | inhibition [2] | IC50 (CDK9/cyclin T1) | IC50 (CDK2/Cyclin A2) | Ratio IC50 (Homo sapiens)
13 | O=C(O)c1ccc(-c2cnc3[nH]nc(NC(=O)C4CCCCC4)c3c2)cc1 | < 10% | < 10% |  |  | 
14 | O=C(Nc1n[nH]c2ncc(-c3ccc([N+](=O)[O-])cc3)cc12)C1CCCCC1 | < 10% | < 10% |  |  | 
15 | COc1ccc(-c2cnc3[nH]nc(N)c3c2)cc1 | < 10% | < 10% |  |  | 
16 | Nc1n[nH]c2ncc(-c3cncnc3)cc12 | 33% | 50% |  |  | 
17 | O=C(Nc1n[nH]c2ncc(-c3ccncc3)cc12)C1CCCCC1 | 59% | 59% |  |  | 
18 | O=C(Nc1n[nH]c2ncc(-c3ccc(CO)cc3)cc12)C1CCCCC1 | 34% | 31% |  |  | 
19 | Nc1n[nH]c(N)c1/N=N/c1ccc(O)cc1 |  |  |  | 13100 nM | 
20 | O=C(CCN1CCOCC1)Nc1n[nH]c2ncc(-c3ccc(O)cc3)cc12 | 44% | 21% |  |  | 
21 | O=C(Nc1n[nH]c2ncc(-c3ccc(O)cc3)cc12)C1CCCCC1 | 86% | 70% | 10400 nM |  | 
22 | N#Cc1ccc(-c2cnc3[nH]nc(NC(=O)C4CCCCC4)c3c2)cc1 | < 10% | < 10% |  |  | 
23 | Nc1n[nH]c2ncc(-c3ccc(F)cc3)cc12 | 51% | 38% |  |  | 
24 | Nc1n[nH]c2ncc(-c3ccc(O)cc3)cc12 | 58% | 48% |  |  | 
25 | O=C(Nc1n[nH]c2ncc(-c3ccc(F)cc3)cc12)C1CCCCC1 | < 10% | 32% |  |  | 
26 | O=C(Nc1n[nH]c2ncc(-c3cncnc3)cc12)C1CCCCC1 | 96% | 83% | 1800 nM | 360 nM | 
27 | CC(C)c1ccc(-c2cnc3[nH]nc(N)c3c2)cc1 | < 10% | < 10% |  |  | 
28 | O=C(Nc1n[nH]c2ncc(-c3ccccc3O)cc12)C1CCCCC1 | 80% | 78% | 3600 nM |  | 
29 | O=C(Nc1n[nH]c2ncc(-c3cccc(O)c3)cc12)C1CCCCC1 | 63% | 62% |  |  | 
